These results are taken from ChEMBL document CHEMBL1909046, “DrugMatrix in vitro pharmacology data”.

Test [1] has as its target Glycine receptor (Rattus norvegicus, UniProt P22771+P24524+P07727+P20781). Type of test: cell membranes, Wistar, Spinal cord, Membrane. Further: in other assays of this panel Not Active means under 50% inhibition at 10 µM.
Test [2] concerns the target T1, Endothelin-1 receptor (Homo sapiens, UniProt P25101). Further: in other assays of this panel Not Active means under 50% inhibition at 10 µM.
T1 sequence (P25101 whole entry): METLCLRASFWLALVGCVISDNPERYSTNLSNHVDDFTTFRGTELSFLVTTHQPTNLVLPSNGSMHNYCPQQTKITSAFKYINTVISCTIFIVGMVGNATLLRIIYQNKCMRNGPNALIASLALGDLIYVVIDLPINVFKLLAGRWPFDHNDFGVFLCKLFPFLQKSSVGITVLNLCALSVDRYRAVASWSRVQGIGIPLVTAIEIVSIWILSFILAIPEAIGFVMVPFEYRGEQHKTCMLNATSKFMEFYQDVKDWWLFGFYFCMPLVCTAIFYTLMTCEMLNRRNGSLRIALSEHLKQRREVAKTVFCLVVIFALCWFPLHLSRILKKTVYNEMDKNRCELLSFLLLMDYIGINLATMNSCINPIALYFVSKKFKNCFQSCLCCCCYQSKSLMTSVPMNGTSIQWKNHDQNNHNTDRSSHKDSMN
Type of test: cell membranes, Membrane. Conditions: cho-k1.

Test [3] deals with T2, Alpha-2C adrenergic receptor (Homo sapiens, UniProt P18825).
T2 sequence (P18825 whole entry): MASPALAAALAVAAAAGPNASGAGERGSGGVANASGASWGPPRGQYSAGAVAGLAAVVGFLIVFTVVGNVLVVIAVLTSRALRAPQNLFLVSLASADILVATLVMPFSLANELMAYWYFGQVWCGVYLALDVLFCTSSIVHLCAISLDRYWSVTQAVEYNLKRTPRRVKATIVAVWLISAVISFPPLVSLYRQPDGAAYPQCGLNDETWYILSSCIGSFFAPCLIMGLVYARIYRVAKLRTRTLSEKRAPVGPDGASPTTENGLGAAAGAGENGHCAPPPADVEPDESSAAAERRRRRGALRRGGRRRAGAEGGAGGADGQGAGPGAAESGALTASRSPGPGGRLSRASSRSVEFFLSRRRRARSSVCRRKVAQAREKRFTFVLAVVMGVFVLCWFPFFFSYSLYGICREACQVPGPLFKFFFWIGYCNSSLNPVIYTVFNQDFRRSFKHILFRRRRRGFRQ
As to the kind of experiment: DRUGMATRIX: Adrenergic Alpha-2C radioligand binding (ligand: [3H] MK-912). On IC50: call rule not given here. Type of test: cell membranes, Sf9, Membrane.

The target of test [4] is Matrix metalloproteinase-9 (Homo sapiens, UniProt P14780). As to the kind of experiment: biochemical. Type of test: cell-based.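 Further: inhibition of isolated MMP-9 enzyme activity toward a synthetic peptide substrate, from the DrugMatrix protease screening panel; in other assays of this panel Not Active means under 50% inhibition at 10 µM.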
Matrix metalloproteinase-9, sequence (P14780 whole entry): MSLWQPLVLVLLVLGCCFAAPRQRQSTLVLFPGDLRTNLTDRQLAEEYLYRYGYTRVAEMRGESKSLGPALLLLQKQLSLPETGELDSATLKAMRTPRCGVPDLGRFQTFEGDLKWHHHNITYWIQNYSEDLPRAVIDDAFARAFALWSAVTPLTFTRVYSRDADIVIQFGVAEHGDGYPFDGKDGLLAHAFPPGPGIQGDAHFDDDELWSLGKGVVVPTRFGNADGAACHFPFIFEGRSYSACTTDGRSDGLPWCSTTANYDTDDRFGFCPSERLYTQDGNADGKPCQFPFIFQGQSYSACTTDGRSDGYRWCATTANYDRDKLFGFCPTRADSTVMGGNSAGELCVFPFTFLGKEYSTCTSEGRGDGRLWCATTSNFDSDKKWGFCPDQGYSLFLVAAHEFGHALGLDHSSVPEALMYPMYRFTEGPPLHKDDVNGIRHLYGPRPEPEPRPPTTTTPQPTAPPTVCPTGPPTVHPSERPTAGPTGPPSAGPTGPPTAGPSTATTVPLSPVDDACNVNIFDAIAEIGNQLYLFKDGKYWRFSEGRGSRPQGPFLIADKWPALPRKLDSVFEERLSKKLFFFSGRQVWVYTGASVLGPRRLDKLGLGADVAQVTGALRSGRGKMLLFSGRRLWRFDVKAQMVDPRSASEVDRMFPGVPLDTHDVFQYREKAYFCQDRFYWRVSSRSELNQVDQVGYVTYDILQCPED
The target of test [5] is T3, C-X-C chemokine receptor type 2 (Homo sapiens, UniProt P25025). Further: in other assays of this panel Not Active means under 50% inhibition at 10 µM.
T3 sequence (P25025 whole entry): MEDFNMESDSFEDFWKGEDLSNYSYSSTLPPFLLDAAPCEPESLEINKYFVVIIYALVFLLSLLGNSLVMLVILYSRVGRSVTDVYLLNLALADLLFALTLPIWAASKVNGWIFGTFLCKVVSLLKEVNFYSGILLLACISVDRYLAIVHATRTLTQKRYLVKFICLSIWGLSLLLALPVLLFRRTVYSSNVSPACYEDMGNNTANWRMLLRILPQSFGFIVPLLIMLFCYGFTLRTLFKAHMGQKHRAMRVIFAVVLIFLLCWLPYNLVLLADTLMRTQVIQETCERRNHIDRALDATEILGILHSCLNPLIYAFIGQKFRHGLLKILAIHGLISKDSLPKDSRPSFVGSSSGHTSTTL
Type of test: cell membranes, Membrane. Conditions: cho-k1.

In test [6] the target is T4, C-C chemokine receptor type 4 (Homo sapiens, UniProt P51679). Further: in other assays of this panel Not Active means under 50% inhibition at 10 µM.
T4 sequence (P51679 whole entry): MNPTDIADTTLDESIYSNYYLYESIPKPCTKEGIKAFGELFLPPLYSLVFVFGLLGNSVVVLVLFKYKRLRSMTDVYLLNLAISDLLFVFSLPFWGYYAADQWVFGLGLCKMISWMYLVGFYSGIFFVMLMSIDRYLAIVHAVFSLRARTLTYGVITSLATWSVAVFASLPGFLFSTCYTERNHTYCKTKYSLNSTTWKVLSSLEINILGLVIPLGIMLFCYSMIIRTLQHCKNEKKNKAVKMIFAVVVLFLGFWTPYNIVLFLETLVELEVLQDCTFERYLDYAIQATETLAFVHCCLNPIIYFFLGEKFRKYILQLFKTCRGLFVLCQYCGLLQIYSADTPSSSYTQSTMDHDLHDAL
The class given is cell membranes, Membrane. To be noted: chem-1.

The target of test [7] is T5, B2 bradykinin receptor (Homo sapiens, UniProt P30411). Further: in other assays of this panel Not Active means under 50% inhibition at 10 µM.
T5 sequence (P30411 whole entry): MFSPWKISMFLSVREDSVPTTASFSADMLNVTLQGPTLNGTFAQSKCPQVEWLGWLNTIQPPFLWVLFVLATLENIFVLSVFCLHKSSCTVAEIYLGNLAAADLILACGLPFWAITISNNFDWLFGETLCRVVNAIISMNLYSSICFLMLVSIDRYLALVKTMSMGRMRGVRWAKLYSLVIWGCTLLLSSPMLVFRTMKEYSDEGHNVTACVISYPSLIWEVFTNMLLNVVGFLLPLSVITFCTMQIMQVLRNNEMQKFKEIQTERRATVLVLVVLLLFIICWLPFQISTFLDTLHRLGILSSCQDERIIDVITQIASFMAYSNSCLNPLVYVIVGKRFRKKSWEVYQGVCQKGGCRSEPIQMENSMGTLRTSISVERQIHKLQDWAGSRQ
The class given is cell membranes, Membrane. To be noted: chem-1.

The target of test [8] is Receptor tyrosine-protein kinase erbB-2 (Homo sapiens, UniProt P04626). As to the kind of experiment: biochemical. Type of test: cell-based, Insect cells. Conditions: insect cells.
Receptor tyrosine-protein kinase erbB-2, sequence (P04626 whole entry): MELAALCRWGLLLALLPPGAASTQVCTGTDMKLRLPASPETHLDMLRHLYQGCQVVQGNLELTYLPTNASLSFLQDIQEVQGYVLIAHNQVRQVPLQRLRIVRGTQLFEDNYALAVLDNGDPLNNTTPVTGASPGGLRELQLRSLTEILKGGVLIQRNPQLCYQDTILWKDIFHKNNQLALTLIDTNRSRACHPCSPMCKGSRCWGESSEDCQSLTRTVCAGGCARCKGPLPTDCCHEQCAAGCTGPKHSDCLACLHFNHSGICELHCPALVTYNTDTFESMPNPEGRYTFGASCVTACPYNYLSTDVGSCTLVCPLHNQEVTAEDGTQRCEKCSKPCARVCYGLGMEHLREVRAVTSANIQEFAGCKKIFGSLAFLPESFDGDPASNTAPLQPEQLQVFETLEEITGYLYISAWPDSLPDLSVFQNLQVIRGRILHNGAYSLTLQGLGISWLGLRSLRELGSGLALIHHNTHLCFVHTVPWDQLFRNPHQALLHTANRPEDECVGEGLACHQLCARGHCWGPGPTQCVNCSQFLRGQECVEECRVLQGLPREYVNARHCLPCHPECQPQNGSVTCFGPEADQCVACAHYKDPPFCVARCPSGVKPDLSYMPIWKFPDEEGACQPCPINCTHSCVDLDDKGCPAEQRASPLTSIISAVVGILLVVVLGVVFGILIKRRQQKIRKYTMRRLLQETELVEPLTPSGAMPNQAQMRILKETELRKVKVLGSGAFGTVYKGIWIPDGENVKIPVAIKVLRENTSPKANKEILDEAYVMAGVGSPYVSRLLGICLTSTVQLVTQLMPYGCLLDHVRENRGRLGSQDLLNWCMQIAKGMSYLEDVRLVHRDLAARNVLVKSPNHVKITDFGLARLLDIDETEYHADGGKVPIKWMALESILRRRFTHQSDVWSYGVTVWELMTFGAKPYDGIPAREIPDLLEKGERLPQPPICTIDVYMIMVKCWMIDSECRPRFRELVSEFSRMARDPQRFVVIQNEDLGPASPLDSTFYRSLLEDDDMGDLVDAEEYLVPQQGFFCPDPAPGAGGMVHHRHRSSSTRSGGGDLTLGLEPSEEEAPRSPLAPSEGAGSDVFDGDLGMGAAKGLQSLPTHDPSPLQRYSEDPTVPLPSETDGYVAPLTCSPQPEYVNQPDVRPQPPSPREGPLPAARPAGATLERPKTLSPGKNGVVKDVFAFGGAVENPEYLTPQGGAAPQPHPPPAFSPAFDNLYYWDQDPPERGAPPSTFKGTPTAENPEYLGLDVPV
Test [9] concerns the target Melanocortin receptor 5 (Homo sapiens, UniProt P33032). Type of test: cell membranes, Membrane. To be noted: hek293. Further: in other assays of this panel Not Active means under 50% inhibition at 10 µM.
In test [10] the target is T6, Neutrophil elastase (Homo sapiens, UniProt P08246).
T6 sequence (P08246 whole entry): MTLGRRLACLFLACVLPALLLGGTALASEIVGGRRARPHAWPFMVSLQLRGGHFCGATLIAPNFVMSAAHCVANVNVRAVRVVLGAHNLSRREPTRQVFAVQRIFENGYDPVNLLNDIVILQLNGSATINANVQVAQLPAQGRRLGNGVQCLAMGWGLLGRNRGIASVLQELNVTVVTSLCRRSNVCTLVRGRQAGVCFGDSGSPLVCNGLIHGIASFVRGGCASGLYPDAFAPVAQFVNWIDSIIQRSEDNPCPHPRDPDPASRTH
Type of test: tissue-based.

In test [11] the target is Nitric oxide synthase 1 (Rattus norvegicus, UniProt P29476). Type of test: tissue-based, Cerebellum. Further: in other assays of this panel Not Active means under 50% inhibition at 10 µM.
Nitric oxide synthase 1, sequence (P29476 whole entry): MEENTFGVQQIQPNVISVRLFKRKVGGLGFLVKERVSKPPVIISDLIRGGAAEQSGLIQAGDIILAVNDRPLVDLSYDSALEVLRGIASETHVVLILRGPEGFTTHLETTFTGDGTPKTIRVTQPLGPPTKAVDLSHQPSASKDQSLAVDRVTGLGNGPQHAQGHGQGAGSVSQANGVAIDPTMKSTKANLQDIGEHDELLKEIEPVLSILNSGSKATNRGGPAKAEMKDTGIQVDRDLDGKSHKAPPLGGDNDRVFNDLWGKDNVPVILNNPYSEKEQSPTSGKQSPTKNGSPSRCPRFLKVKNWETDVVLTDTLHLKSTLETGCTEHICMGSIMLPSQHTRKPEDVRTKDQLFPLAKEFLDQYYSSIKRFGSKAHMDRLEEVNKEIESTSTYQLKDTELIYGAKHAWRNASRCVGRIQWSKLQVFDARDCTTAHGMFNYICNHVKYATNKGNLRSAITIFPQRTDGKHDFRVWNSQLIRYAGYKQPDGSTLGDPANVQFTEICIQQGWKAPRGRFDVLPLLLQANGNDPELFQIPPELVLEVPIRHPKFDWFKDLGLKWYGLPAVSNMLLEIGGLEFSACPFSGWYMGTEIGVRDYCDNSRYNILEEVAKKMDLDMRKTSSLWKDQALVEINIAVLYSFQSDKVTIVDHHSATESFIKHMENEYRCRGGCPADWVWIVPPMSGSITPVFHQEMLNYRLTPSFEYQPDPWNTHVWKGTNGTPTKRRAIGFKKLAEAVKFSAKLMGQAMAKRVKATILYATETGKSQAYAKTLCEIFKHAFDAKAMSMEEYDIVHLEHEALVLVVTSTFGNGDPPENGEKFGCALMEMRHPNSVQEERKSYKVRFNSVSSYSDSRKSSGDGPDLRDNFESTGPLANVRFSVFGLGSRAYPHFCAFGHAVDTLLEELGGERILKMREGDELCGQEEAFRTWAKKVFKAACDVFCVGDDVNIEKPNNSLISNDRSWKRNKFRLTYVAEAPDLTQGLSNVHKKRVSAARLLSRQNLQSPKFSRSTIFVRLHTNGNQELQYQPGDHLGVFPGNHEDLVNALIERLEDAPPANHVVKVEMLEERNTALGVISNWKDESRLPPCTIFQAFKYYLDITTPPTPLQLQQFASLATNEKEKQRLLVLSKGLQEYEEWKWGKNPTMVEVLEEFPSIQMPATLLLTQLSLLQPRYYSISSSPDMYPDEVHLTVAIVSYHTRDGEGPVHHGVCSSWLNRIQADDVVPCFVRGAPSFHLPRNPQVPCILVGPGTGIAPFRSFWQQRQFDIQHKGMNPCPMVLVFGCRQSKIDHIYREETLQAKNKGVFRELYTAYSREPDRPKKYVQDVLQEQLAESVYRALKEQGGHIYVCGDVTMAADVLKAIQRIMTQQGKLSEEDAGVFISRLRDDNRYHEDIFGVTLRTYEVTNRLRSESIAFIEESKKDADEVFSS

Melanocortin receptor 5, sequence (P33032 whole entry): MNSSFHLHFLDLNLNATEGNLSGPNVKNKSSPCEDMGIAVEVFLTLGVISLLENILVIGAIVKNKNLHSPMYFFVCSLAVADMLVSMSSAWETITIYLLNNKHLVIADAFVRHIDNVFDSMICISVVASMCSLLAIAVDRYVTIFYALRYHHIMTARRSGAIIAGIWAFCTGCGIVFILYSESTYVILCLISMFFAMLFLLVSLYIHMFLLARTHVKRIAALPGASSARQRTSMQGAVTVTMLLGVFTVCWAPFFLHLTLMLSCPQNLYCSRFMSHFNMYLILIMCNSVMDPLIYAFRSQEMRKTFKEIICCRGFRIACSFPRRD

As usually defined, the IC50 is the concentration at which inhibition is half-maximal. Consider `CC1=C(CC(=O)O)c2cc(F)ccc2/C1=C\c1ccc([S+](C)[O-])cc1` (stereo not drawn), for which the IC50 result in [1], in test [2], in test [3] (sf9), in test [4], in [5] and in [6] was “Not Active” each time. Besides, the IC50 entry in test [7], in test [8], in [9], in [10] and in [11] was “Not Active” each time.

In the case of `N[C@H](CSC(=S)NCc1ccccc1)C(=O)O`, the IC50 result in [1], in test [2], in test [3] (sf9), in test [4], in test [5] and in test [6] was “Not Active” in each case. In addition, the IC50 entry in test [7], in test [8], in [9], in test [10] and in test [11] was “Not Active” in each case.

Consider `CC(=O)N[C@@H]1[C@H](Oc2c3cc4cc2Oc2ccc(cc2Cl)[C@@H](O[C@@H]2O[C@@H](CO)[C@@H](O)[C@H](O)[C@@H]2NC(C)=O)[C@@H]2NC(=O)[C@H](NC(=O)[C@@H]4NC(=O)[C@H]4NC(=O)[C@@H](Cc5ccc(c(Cl)c5)O3)NC(=O)[C@H](N)c3ccc(O)c(c3)Oc3cc(O)cc4c3)c3ccc(O)c(c3)-c3c(O[C@H]4O[C@H](CO)[C@@H](O)[C@@H](O)[C@@H]4O)cc(O)cc3[C@@H](C(=O)O)NC2=O)O[C@@H](CO)[C@@H](O)[C@@H]1O`, for which the IC50 entry in test [1], in [2], in test [3] (sf9), in test [4], in [5] and in [6] was “Not Active” each time. The IC50 entry in [7], in [8], in [9], in [10] and in test [11] was “Not Active” in each case.

On to `Clc1ccc2c(c1)C(N1CCNCC1)=Nc1ccccc1O2` [AMOXAPINE], for which the IC50 entry in test [1], in test [2], in [4], in [5], in test [6] and in test [7] was “Not Active” in each case. Besides, the IC50 result in test [8], in test [9], in test [10] and in [11] was “Not Active” each time.

Consider `COc1cc2c(c(OC)c1OC)-c1ccc(OC)c(=O)cc1[C@@H](NC(C)=O)CC2` [COLCHICINE], for which the IC50 result in test [1], in test [2], in [3] (sf9), in test [4], in test [5] and in test [6] was “Not Active” in each case. Moreover, the IC50 result in test [7], in test [8], in test [9], in test [10] and in test [11] was “Not Active” throughout.

A word on the Ki: it is a measure of affinity in units of concentration, obtained from inhibition or displacement. `CN1CCC(=C2c3ccccc3C=Cc3ccccc32)CC1` [CYPROHEPTADINE]: the IC50 entry in [1] is “Not Active”; in test [2], “Not Active”; in test [3] (read-out: IC50) it was 1270 nM; in test [4], “Not Active”; in [5] it was “Not Active”; in test [6] it was “Not Active”. For the same compound, the IC50 entry in test [7], in [8], in [9], in [10] and in test [11] was “Not Active” each time. In addition, in [3] (read-out: Ki), the Ki came out at 185 nM.

As to `CC/C(=C(/CC)c1ccc(O)cc1)c1ccc(O)cc1` [DIETHYLSTILBESTROL], the IC50 entry in test [1], in test [2], in test [4], in test [5], in test [6] and in test [7] was “Not Active” each time. Also, the half-maximal inhibitory concentration (IC50) entry in test [8], in test [9], in [10] and in test [11] was “Not Active” each time.

For `CC(=O)N1CCN(c2ccc(OCC3COC(Cn4ccnc4)(c4ccc(Cl)cc4Cl)O3)cc2)CC1` (stereo not drawn) [KETOCONAZOLE], the IC50 entry in [1], in test [2], in test [3] (sf9), in test [4], in [5] and in test [6] was “Not Active” each time. The IC50 result in [7], in test [8], in test [9], in test [10] and in test [11] was “Not Active” in each case.

Take `C=CCN1CC[C@]23c4c5ccc(O)c4O[C@H]2C(=O)CC[C@@]3(O)[C@H]1C5` [NALOXONE]: the IC50 entry in test [1], in [2], in [3] (sf9), in test [4], in [5] and in test [6] was “Not Active” throughout. Also, the 50% inhibitory concentration (IC50) entry in test [7], in [8], in test [9], in test [10] and in test [11] was “Not Active” in each case.

`O=C(c1ccc(OCCN2CCCCC2)cc1)c1c(-c2ccc(O)cc2)sc2cc(O)ccc12` [RALOXIFENE]: the IC50 result in [1], in test [2], in [4], in [5], in [6] and in test [7] was “Not Active” throughout. Moreover, the half-maximal inhibitory concentration (IC50) entry in [8], in [9], in [10] and in [11] was “Not Active” in each case.

Turning to `CC(C)(C)c1ccc(C(O)CCCN2CCC(C(O)(c3ccccc3)c3ccccc3)CC2)cc1` (stereo not drawn) [TERFENADINE], the IC50 entry in [1], in test [2], in [4], in test [5], in [6] and in test [7] was “Not Active” in each case. The concentration for half-maximal inhibition (IC50) result in [8], in test [9], in test [10] and in [11] was “Not Active” throughout.
